Compound: NCC(=O)Nc1ccc(-n2nc(C(F)(F)F)cc2-c2ccc3c(ccc4ccccc43)c2)cc1 + Cc1cc(Nc2cc(N3CCN(C)CC3)nc(Sc3ccc(NC(=O)C4CC4)cc3)n2)n[nH]1 [Tozasertib] (partner 0.1 µM)
Test: relative viability (nuclei count vs DMSO), 5 days (fraction); higher = more cells survive
Conditions: first compound 0.02 µM
Procedure, shortened: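 Lung cancer cell lines were pin-tool dosed in 1536-well plates on the day after seeding, with either a lone drug or a fixed anchor-drug dose plus five library-drug doses (not always all listed) in √10 steps. Nuclei were counted on 4× images after 5 days. Relative viability is the ratio of treated-well to vehicle-well nuclei counts, with each value a median of duplicate plates.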

Point of comparison: NCI-H661, relative viability 0.37. Against it:
- NCI-H1650 — higher, 0.389
- NCI-H1993 — higher, 0.54
- SW 1573 — lower, 0.244
- NCI-H838 — lower, 0.264
- LCLC-103H — higher, 0.416
- NCI-H520 — higher, 0.492
- NCI-H2126 — higher, 0.842
- EMC-BAC-2 — lower, 0.29
- NCI-H2085 — higher, 0.697
- HCC-366 — higher, 0.42
- NCI-H1666 — higher, 0.579
- NCI-H596 — higher, 1
- LK-2 — lower, 0.159
- NCI-H2087 — lower, 0.208
- NCI-H1648 — lower, 0.362
- SK-MES-1 — higher, 0.939
- H3255 — higher, 0.657
- COR-L23 — lower, 0.208
- COR-L 105 — lower, 0.361
- LOU-NH91 — higher, 0.621
- HCC-44 — higher, 1.03
- HCC-78 — higher, 0.408
- NCI-H2009 — higher, 0.821
- SK-LU-1 — lower, 0.324
- NCI-H2228 — lower, 0.217
- NCI-H2023 — lower, 0.326

Same assay, conditions: first compound 0.06325 µM

Point of comparison: SK-MES-1, relative viability 1. Against it:
- NCI-H2342 — lower, 0.676
- NCI-H1623 — lower, 0.429
- NCI-H727 — lower, 0.664
- NCI-H1650 — lower, 0.438
- NCI-H1993 — lower, 0.582
- SW 1573 — lower, 0.15
- NCI-H838 — lower, 0.35
- LCLC-103H — lower, 0.477
- NCI-H520 — lower, 0.425
- NCI-H2126 — lower, 0.892
- EMC-BAC-2 — lower, 0.314
- NCI-H2085 — lower, 0.853
- HCC-366 — lower, 0.18
- NCI-H1666 — lower, 0.63
- NCI-H596 — lower, 0.911
- LK-2 — lower, 0.185
- NCI-H2087 — lower, 0.272
- NCI-H1648 — lower, 0.532
- H3255 — lower, 0.511
- COR-L23 — lower, 0.213
- COR-L 105 — lower, 0.313
- LOU-NH91 — lower, 0.716
- HCC-44 — higher, 1.26
- NCI-H522 — lower, 0.589
- HCC-78 — lower, 0.415
- NCI-H2009 — lower, 0.715
- NCI-H661 — lower, 0.343
- SK-LU-1 — lower, 0.335
- NCI-H2228 — lower, 0.265
- NCI-H2023 — lower, 0.394

Same assay, conditions: first compound 0.2 µM

Point of comparison: SK-MES-1, relative viability 0.914. Against it:
- NCI-H2342 — lower, 0.45
- NCI-H1623 — lower, 0.464
- NCI-H727 — lower, 0.588
- NCI-H1993 — lower, 0.572
- SW 1573 — lower, 0.272
- NCI-H838 — lower, 0.299
- LCLC-103H — lower, 0.457
- NCI-H520 — lower, 0.402
- NCI-H2126 — lower, 0.874
- EMC-BAC-2 — lower, 0.325
- NCI-H2085 — lower, 0.836
- HCC-366 — lower, 0.118
- NCI-H1666 — lower, 0.578
- NCI-H596 — higher, 1.02
- LK-2 — lower, 0.183
- NCI-H2087 — lower, 0.21
- NCI-H1648 — lower, 0.502
- H3255 — lower, 0.749
- COR-L23 — lower, 0.195
- COR-L 105 — lower, 0.303
- LOU-NH91 — lower, 0.649
- HCC-44 — lower, 0.879
- NCI-H522 — lower, 0.537
- HCC-78 — lower, 0.501
- NCI-H2009 — lower, 0.772
- NCI-H661 — lower, 0.356
- SK-LU-1 — lower, 0.386
- NCI-H2228 — lower, 0.308
- NCI-H2023 — lower, 0.441

Same assay, conditions: first compound 0.6325 µM

Point of comparison: SK-LU-1, relative viability 0.346. Against it:
- NCI-H2342 — higher, 0.448
- NCI-H1623 — higher, 0.396
- NCI-H727 — higher, 0.502
- NCI-H1650 — higher, 0.453
- NCI-H1993 — higher, 0.529
- SW 1573 — lower, 0.228
- NCI-H838 — lower, 0.285
- LCLC-103H — higher, 0.471
- NCI-H520 — higher, 0.424
- NCI-H2126 — higher, 0.864
- EMC-BAC-2 — lower, 0.308
- NCI-H2085 — higher, 0.878
- HCC-366 — lower, 0.15
- NCI-H1666 — higher, 0.584
- NCI-H596 — higher, 0.925
- LK-2 — lower, 0.188
- NCI-H2087 — lower, 0.26
- NCI-H1648 — higher, 0.503
- SK-MES-1 — higher, 0.866
- H3255 — higher, 0.686
- COR-L23 — lower, 0.21
- COR-L 105 — lower, 0.295
- LOU-NH91 — higher, 0.663
- HCC-44 — higher, 0.803
- NCI-H522 — higher, 0.505
- HCC-78 — higher, 0.403
- NCI-H2009 — higher, 0.692
- NCI-H661 — higher, 0.362
- NCI-H2228 — lower, 0.27
- NCI-H2023 — higher, 0.387

Same assay, conditions: first compound 2 µM

Point of comparison: EMC-BAC-2, relative viability 0.302. Against it:
- NCI-H2342 — higher, 0.492
- NCI-H1623 — higher, 0.488
- NCI-H727 — higher, 0.711
- NCI-H1650 — higher, 0.347
- NCI-H1993 — higher, 0.561
- SW 1573 — lower, 0.182
- NCI-H838 — lower, 0.291
- LCLC-103H — higher, 0.448
- NCI-H520 — higher, 0.398
- NCI-H2126 — higher, 0.852
- NCI-H2085 — higher, 0.807
- HCC-366 — lower, 0.0801
- NCI-H1666 — higher, 0.572
- NCI-H596 — higher, 0.903
- LK-2 — lower, 0.171
- NCI-H2087 — lower, 0.259
- NCI-H1648 — higher, 0.399
- SK-MES-1 — higher, 0.856
- H3255 — higher, 0.713
- COR-L23 — lower, 0.136
- COR-L 105 — higher, 0.336
- LOU-NH91 — higher, 0.797
- HCC-44 — higher, 0.829
- NCI-H522 — higher, 0.516
- HCC-78 — higher, 0.411
- NCI-H2009 — higher, 0.653
- NCI-H661 — higher, 0.341
- SK-LU-1 — higher, 0.339
- NCI-H2228 — lower, 0.229
- NCI-H2023 — higher, 0.321

Reference: the supplement of paper PMC10307832
